Measurements reported in US9085549B2, “Compounds for the treatment of neurodegenerative diseases” (ProteoTech Inc., priority 2011, dated 2015).
Like-named read-outs stand apart in the source and are kept apart here.

Assays:
α-synuclein fibrils [1] = molecular target: T1, α-synuclein fibrils (Homo sapiens (Human), UniProt P37840); experiment: Thioflavin T fluorometry: disruption/disaggregation of pre-formed α-synuclein fibrils; type: biochemical; conditions: for Emax: 48 h, read-out: Max % Decrease
Description: The biological activity of the compounds provided herein as disruptors/inhibitors of Parkinson's disease α-synuclein fibrils was assessed by determining the efficacy of the compounds to cause a disassembly/disruption of pre-formed Parkinson's disease α-synuclein fibrils. In one study, Thioflavin T fluorometry was used to determine the effects of the compounds, and […]).
In one study, Thioflavin T fluorometry was used to determine the effects of the compounds on α-synuclein fibrils. In addition to test compounds, this experiment included a positive control compound and a negative control compound for reference.
For each compound, the % inhibition of Thioflavin T fluorescence (i.e. the decrease compared to control reactions containing α-synuclein alone) was plotted against the log of the concentration of the test compound (expressed as mole ratio relative to α-synuclein).

[2] = system: BE-M17 human neuroblastoma cells stably transfected with A53T-mutant human α-synuclein; experiment: Thioflavin S staining of rotenone-induced α-synuclein aggregates in cells; type: cell-based; conditions: for inhibition at 0.5 µM / inhibition at 2 µM / inhibition at 1 µM / inhibition at 5 µM: Homo sapiens, Neuroblastoma cell, read-out: Efficacy % Inhibition
α-synuclein = α-synuclein (Homo sapiens (Human), UniProt P37840); experiment: Circular dichroism spectroscopy: inhibition of α-synuclein β-sheet formation; type: biochemical; conditions: read-out: Max % Inhibition
Description: For this purpose, α-synuclein was obtained from rPeptide as a lyophilized salt in 1 mg aliquots. Buffer components and other solvents were obtained from Sigma as A.C.S. Reagent grade or higher. […] After 24 hours, reactions were diluted 20-fold in PBS and CD spectra for each reaction were acquired on a Jasco J-810 spectropolarimeter using a 0.1 cm path length cell. All spectra were recorded with a step size of 0.1 nm, a bandwidth of 1 nm, and an α-synuclein concentration of 0.05 mg/ml. The spectra were trimmed at the shortest wavelength that still provided a dynode voltage less than 600V. The trimmed spectra were then subjected to a data processing routine beginning with noise reduction by Fourier transform followed by subtraction of a blank spectrum (vehicle only without α-synuclein). These blank corrected spectra were then zeroed at 260 nm and the units converted from millidegrees to specific ellipticity.
These percent β-sheet values were then used to provide the respective relative % inhibition of β-sheet induced by the compounds at given molar ratio of test compound:α-synuclein.

α-synuclein fibrils [3] = molecular target: T1, α-synuclein fibrils; experiment: biochemical; conditions: 48 h, read-out: Max % Decrease
[4] = molecular target: human TauRD (Q244-E372 of Tau441) (Homo sapiens (Human), UniProt P10636); experiment: Thioflavin S fluorometry: inhibition of tau protein fibril formation; type: biochemical; conditions: for IC50: read-out: ThioS (IC50)
Chain of human TauRD (Q244-E372 of Tau441) (P10636 561-689): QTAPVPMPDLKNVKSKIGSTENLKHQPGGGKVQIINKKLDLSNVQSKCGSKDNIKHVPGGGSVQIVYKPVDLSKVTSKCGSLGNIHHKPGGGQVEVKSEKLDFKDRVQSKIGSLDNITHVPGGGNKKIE
Description: Methods Mol Biol, 2005. 299: p. 35-51]. […] (with shaking at 800-1000 rpm for day).
The Thio S fluorometry assay as a primary screening method to identify tau protein aggregation inhibitors from our small molecule library. Aggregated tau fibrils were prepared in the presence of equimolar ratios of TauRD and heparin (10 μM each) in 20 mM Na-phosphate buffer, pH7.4. The reaction mixture was incubated at 37° C. with shaking (800-1000 rpm) for 22-24 hr (or for 3 days). In the Thio S inhibition assays, test compounds at 0, 0.1, 1, 10 and 100 μM were added at time 0 into the reaction containing TauRD and heparin. The same reaction mixture (+/− increasing concentrations of compounds) but without TauRD were also set up in parallel to serve as background controls. For all test compounds background fluorescence readings were very low, usually <5% of those of the TauRD-containing wells. For each compound, the IC50 was calculated using Prism version 5 software (GraphPad Software) by nonlinear regression [(Log [inhibitor] vs. normalized response; variable slope)]. […] The Thio S screening results are summarized in Table 7 (in which the reactions were incubated for 22 hours).

TauRD = TauRD (Homo sapiens (Human), UniProt P10636); experiment: Circular dichroism spectroscopy: tau protein β-sheet formation
Chain of TauRD (P10636 561-689): as above
Description: CD spectroscopy was also performed to determine each compound's potency in inhibiting β-sheet secondary structure in TauRD under aggregation-prone conditions. The CD spectroscopy and Thio S assays were typically analyzed in parallel from the same sample preparation in order to correlate the results from two independent assays. CD spectra were taken from the samples containing +/− TauRD with increasing concentrations of compounds, and collected at 25° C. on a JASCO Model J-810 Spectropolarimeter. […] Since CD spectra reflect a total population of secondary structures (including random coil, β-sheet, and various intermediate conformers) of TauRD proteins under a given condition, the CD scores were established based on (1) the CD spectra derived from TauRD mixtures with different ratios of random coil/β-sheet; (2) time-dependent conformational changes of TauRD.

α-synuclein fibrils [5] = molecular target: T1, α-synuclein fibrils
[6] = system: A53T α-synuclein-expressing BE-M17 cells; experiment: XTT assay: rotenone-induced cell death; type: cell-based, human
[7] = Thioflavin T fluorescence, 2-day incubation
[8] = rotenone 0.5 μM, compound 0.5 μM
[9] = inhibition of β-sheet formation, 24 hours
[10] = Homo sapiens, read-out: Max % Inhibition
[11] = TauRD and heparin 10 μM each, incubated for 22 hours
[12] = Homo sapiens; read-out: Max % Inhibition
[13] = Homo sapiens, read-out: % inhibition of cell death

Oc1ccc(-c2nc3cc(O)c(O)cc3o2)cc1O [SA-54]
Emax (α-synuclein fibrils [1]; [7]): 98%
inhibition at 0.5 µM [2, 8]: 80%
inhibition at 2 µM ([2]; rotenone 0.5 μM, compound 2 μM): 83%
inhibition at 1 µM ([2]; rotenone 2 μM, compound 1 μM): 56%
Emax (α-synuclein; [9]): 100%
Emax (α-synuclein fibrils [3]): 57%

Oc1ccc(-c2nnc(-c3cc(O)c(O)cc3Br)o2)cc1O [SA-55]
ThioS (IC50, μM) [4]: no inhibition
CD (TauRD): −

Oc1ccc(-c2nsc(-c3ccc(O)c(O)c3)n2)cc1O [SA-57]
Emax (α-synuclein fibrils [1]; [7]): 100%
% inhibition of Thioflavin T fluorescence (α-synuclein fibrils [1]; test compound:α-synuclein molar ratio of 1:1): 83%
% inhibition of Thioflavin T fluorescence (α-synuclein fibrils [1]; test compound:α-synuclein molar ratios ≧5:1): 97-100%
Emax (α-synuclein; [9]): 100%
% inhibition of Congo red binding (α-synuclein fibrils [5]; test compound:α-synuclein molar ratio of 5:1): 49%
% inhibition of Congo red binding (α-synuclein fibrils [5]; test compound:α-synuclein molar ratio of 50:1): 66%
Emax (α-synuclein fibrils [3]): 66%

Oc1ccc(-c2cc(Br)c(-c3ccc(O)c(O)c3)s2)cc1O [SA-59]
Efficacy % Inhibition [2]: 67%
inhibition at 1 µM [2]: 69%
inhibition at 2 µM [2]: 76%
inhibition at 5 µM [2]: 56%
IC50 ([6]; Homo sapiens): 3.1 µM
Emax [6, 10]: 63%

COc1ccc(-c2cc(-c3ccc(OC)c(OC)c3)c(-c3ccc(OC)c(OC)c3)s2)cc1OC [SA-60, 2,3,5-tri(3′,4′-dimethoxyphenyl)thiophene]
inhibition of rotenone-induced cell death (in words) [6]: significant, dose-dependent inhibition
IC50 ([6]; Homo sapiens): 12.5 µM
Emax [6, 10]: 33%
ThioS (IC50, μM) [4, 11]: no inhibition

Oc1ccc(-c2ccc(Br)s2)cc1O [SA-62]
ThioS (IC50, μM) [4, 11]: no inhibition

Oc1ccc(-c2ccc(-c3cc(O)c(O)c(O)c3)s2)cc1O [SA-63, 5-(5-(3,4-dihydroxyphenyl)thiophen-2-yl)benzene-1,2,3-triol]
IC50 [4, 11]: 10.1 ± 0.56 µM
CD (TauRD; semi-quantitative CD score, aggregated TauRD): +

Oc1ccc(-c2cnc(-c3ccc(O)c(O)c3)s2)cc1O [SA-64]
Emax (α-synuclein fibrils [1]; [7]): 100%
IC50 ([6]; Homo sapiens; read-out: IC50): 2.6 µM
Emax [6, 12]: 100%
Emax (α-synuclein; [9]): 100%
IC50 [4, 11]: 17.6 µM
Emax (α-synuclein fibrils [3]): 85%

Oc1ccc(-c2nnc(-c3ccc(O)c(O)c3)o2)cc1O [SA-67]
Emax (α-synuclein fibrils [1]; [7]): 76%
inhibition at 0.5 µM [2, 8]: 75%
inhibition at 1 µM ([2]; rotenone 0.5 μM, compound 1 μM): 48%
inhibition at 2 µM ([2]; rotenone 0.5 μM, compound 2 μM): 92%
IC50 ([6]; Homo sapiens; read-out: IC50): 8.5 µM
Emax [6, 12]: 44%
Emax (α-synuclein; [9]): 100%
Emax (α-synuclein fibrils [3]): 25%

Oc1ccc(-c2cn(-c3ccc(O)c(O)c3)nn2)cc1O [SA-68]
Emax (α-synuclein fibrils [1]): 100%
inhibition at 1 µM ([2]; rotenone 0.5 μM, compound 1 μM): 69%
inhibition at 5 µM ([2]; rotenone 0.5 μM, compound 5 μM): 73%
inhibition at 5 µM ([2]; rotenone 2 μM, compound 5 μM): 44%
IC50 ([6]; Homo sapiens; read-out: IC50): 24 µM
Emax [6, 12]: 61%
Emax (α-synuclein; 24 h): 100%

Oc1ccc(-c2cnc(-c3ccc(O)c(O)c3)o2)cc1O [SA-70]
Emax (α-synuclein fibrils [1]): 100%
IC50 ([6]; Homo sapiens): 5.6 µM
Emax [6, 10]: 78%
Emax (α-synuclein; 24 h): 92%
Emax (α-synuclein fibrils [3]): 88%

Oc1ccc(-c2cnco2)cc1O [SA-73]
Max % Decrease (α-synuclein fibrils [1]; [7]): 100%
EC50 (mole ratio) (α-synuclein fibrils [1]; Thioflavin T fluorescence, moles of test compound per mole of α-synuclein, 6.9 μM pre-formed fibrils, 2 days): 0.52 mole ratio
disruption/disassembly of preformed α-synuclein fibrils (in words) (α-synuclein fibrils [1]; molar ratios 50:1 to 0.01:1): dose-dependent and extensive disruption/disassembly
inhibition of rotenone-induced cell death (in words) ([6]; 500 nM rotenone): significant, dose-dependent inhibition
Max % Inhibition ([6]; inhibition of cell death, 500 nM rotenone): 77%
IC50 ([6]; inhibition of cell death, 500 nM rotenone; read-out: IC50): 35 to 75 µM
Max % Decrease (α-synuclein fibrils [5]; Congo red binding, 2-day incubation): 35%
EC50 (mole ratio) (α-synuclein fibrils [5]; Congo red binding, moles of test compound per mole of α-synuclein, 2 days): 1.1 mole ratio

Oc1ccc(Cc2cc(O)c(O)cc2I)cc1O [SA-93]
Emax (α-synuclein fibrils [1]; [7]): 100%
inhibition at 2 µM ([2]; rotenone 2 μM, compound 2 μM): 45%
IC50 ([6]; Homo sapiens; read-out: IC50): 19.8 µM
Emax [6, 12]: 100%
Emax (α-synuclein; [9]): 91%
Emax (α-synuclein fibrils [3]): 62%

O=C(/C=C/c1ccc(O)c(O)c1)c1ccc(O)c(O)c1 [SA-94]
Emax (α-synuclein fibrils [1]): 100%
inhibition at 0.5 µM [2]: 70%
inhibition at 1 µM [2]: 63%
inhibition at 2 µM [2]: 85%
IC50 ([6]; Homo sapiens): 2.3 µM
inhibition at 3.5 µM [6, 13]: 35%
inhibition at 15 µM [6, 13]: 58%
Emax [6, 10]: 58%
Emax (α-synuclein; 24 h): 95%
Emax (α-synuclein fibrils [3]): 65%

O=C(/C=C/c1cc(O)c(O)cc1Br)c1ccc(O)c(O)c1 [SA-95]
Emax (α-synuclein fibrils [1]; [7]): 100%
inhibition at 0.5 µM [2, 8]: 73%
inhibition at 1 µM ([2]; rotenone 0.5 μM, compound 1 μM): 98%
inhibition at 2 µM ([2]; rotenone 0.5 μM, compound 2 μM): 90%
inhibition at 0.5 µM ([2]; rotenone 2 μM, compound 0.5 μM): 95%
IC50 ([6]; Homo sapiens; read-out: IC50): 3.8 µM
Emax [6, 12]: 63%
Emax (α-synuclein; [9]): 97%
Emax (α-synuclein fibrils [3]): 64%

O=C(/C=C/c1ccc(O)c(O)c1)c1cc(O)c(O)cc1Br [SA-96]
Emax (α-synuclein fibrils [1]): 100%
inhibition at 0.5 µM [2]: 73%
inhibition at 1 µM [2]: 82%
inhibition at 2 µM [2]: 81%
IC50 ([6]; Homo sapiens): 4.3 µM
Emax [6, 10]: 61%
Emax (α-synuclein; 24 h): 100%
Emax (α-synuclein fibrils [3]): 72%

Oc1ccc(Cc2cc(O)c(O)cc2O)cc1O [SA-97]
Emax (α-synuclein fibrils [1]; [7]): 99%
IC50 ([6]; Homo sapiens; read-out: IC50): 39 µM
Emax [6, 12]: 42%
Emax (α-synuclein; [9]): 100%
Emax (α-synuclein fibrils [3]): 40%

CC(=O)N1N=C(c2ccc(O)c(O)c2)CC1c1ccc(O)c(O)c1 (centres unmarked) [SA-98]
Emax (α-synuclein fibrils [1]): 100%
inhibition at 0.5 µM [2]: 74%
inhibition at 1 µM [2]: 76%
IC50 ([6]; Homo sapiens): 48 µM
Emax [6, 10]: 56%
Emax (α-synuclein; 24 h): 100%
Emax (α-synuclein fibrils [3]): 44%

O=[N+]([O-])c1cc(-c2ccc(O)c(O)c2)ccc1-c1ccc(O)c(O)c1 [SA-99]
Emax (α-synuclein fibrils [1]; [7]): 100%
Emax (α-synuclein; [9]): 98%
Emax (α-synuclein fibrils [3]): 54%
